Patent US6673940B1, “Compositions and methods relating to cyclic compounds that undergo nucleotide base pair-specific interactions with double-stranded nucleic acids” (California Institute of Technology, priority 1999, dated 2004)
Each block holds one substance with its values, some of them ahead of it.

How the values were obtained:
[1] = test system: 5′-AGTACT-3′ site on 229 bp restriction fragment of pJT8; test: Quantitative DNase I footprint titration, 5′-AGTACT-3′ site; assay type: binding; conditions: for equilibrium association constant Ka at 5′-AGTACT-3′: 10 mM Tris•HCl, 10 mM KCl, 10 mM MgCl2, 5 mM CaCl2, pH 7.0, 22° C., match site for (3), single base pair mis-match for (4)
Experimental: (§1) FIGS. 8A and 8B depict the results quantitative DNase I footprint titration experiments with (a) cyclo-(Γ-Im-Py-Py-Py-(R)^H^2^Nγ-Im-Py-Py-Py) (3) and (b) cyclo-(γ-Im-Py-Py-Py(R)^H^2^Nγ-Py-Py-Py-Py) (4) on the 3′-end labeled 229-bp restriction fragment of pJT8. Lane 1, intact DNA control; lane 2, A reaction; lane 3, DNase I standard, lanes 4-13, 5 pM, 10 pM, 20 pM, 50 pM, 100 pM, 1 nM, 2 nM, 5 nM, and 10 nM of the respective polyamide. The 5′-AGTACT-3′ and 5′-AGTATT-3′ match and mis-match sites for each polyamide were analyzed and are shown on the right side of the respective autoradiograms. All reactions contained 20 kcpm of radiolabeled restriction fragment, 10 mM Tris•HCI (pH 7.0), 10 mM KC1, 10 mM MgCl2, and 5 mM CaCl2.
(§2) As controls, the binding affinities and sequence specificities of the Im-Py-Py-Py-β-Dp (1) unlinked 2:1 dimer and a hairpin analog 1m-Py-Py-Py-(R)^H,Nγ-Im-Py-Py-Py-C3-OH (2) were also studied. An EDTA analogue, cyclo-(γ-Im-Py-Py-Py-(R)^EDTA-FE(II)γ-Py-Py-Py-Py-) (4-E•Fe(II)) was constructed to confirm the binding orientation of cyclic polyamide (4) at its 5′-AGTATT-3′ match and 5′-AGTACT-3′ single base pair mismatch site. All polyamides were synthesized by solid phase methods (see Baird, et al., J. Am. Chem. Soc., vol. 118:6141 (1996), and U.S. Ser. No. 08/607,078 for a description of solid phase synthesis methods for non-cyclic polyamides). Polyamide purity and identity was confirmed by H NMR, MALDI-TOF MS, and analytical HPLC. Precise binding site sizes were determined by MPE•Fe(II) footprinting (see Van Dyke, et al., Proc. Natl. Acad. Sci. U.S.A., vol. 79:5470 (1982), and Van Dyke and Dervan, Science, vol. 225:1122 (1984)), and binding orientation and stoichiometry confirmed by affinity cleaving experiments. See Taylor, et al., Tetrahedron, vol.40:457 (1984), and Dervan, P. B., Science, vol. 232:464 (1986). Equilibrium association constants (Ka) of the polyamides for their respective match and mis-match binding sites were determined by quantitative DNase I footprint titration, as described by Brenowitz, et al., Methods Enzymol., vol. 130:132 (1986), Brenowitz, et al., Proc. Natl. Acad. Sci. U.S.A., vol 83:8462 (1986), and Senear, et al., Biochemistry, vol. 25:7344 (1986).
Quantitative DNase I footprint titrations (10 mm Tris•HCI, 10 mM KCl, 10 MM MgCl2 and 5 mM CaCl2 pH 7.0 and 22° C.) were performed to determine the equilibrium association constants (Ka) of Im-Py-Py-Py-β-Dp (1), Im-Py-Py-Py-(R)^H,NγIm-Py-Py-Py-OH (2), cyclo-(γ-Im-Py-Py-Py-(R)^H,Nγ-Im-Py-Py-Py) (3), and cyclo-(γ-Im-Py-Py-Py-(R)^H,Nγ-Py-Py-Py-Py-) (4) for the 6 bp match and mis-match sites. The results for (3) and (4) are depicted in FIG. 8.

[2] = test system: 5′-TGTTA-3′ dsDNA target sequence; conditions: Cho et al. 1995; cited from earlier work
[3] = test system: 229 base pair DNA restriction fragment from the plasmid pJT8 (5′-AGTATT-3′ and 5′-AGTACT-3′ sites); test: Affinity cleavage experiments; assay type: binding; conditions: 100 nM; 20 mM HEPES pH 7.3, 200 mM NaCl, 1 μM Fe(II), 22° C.
Experimental: FIGS. 6A and 6B show the results of affinity cleaving experiments using cyclo-(γ-Im-Py-Py-Py-(R)^EDTA-Fe(II)γ-Py-Py-Py-Py) (4-E•Fe(II)) on the (a) 3′- and (b) 5′-^32P-labeled 229 bp restriction fragment of pJT8. The match and single mis-match sites 5′-AGTATT-3′ and 5′-AGTACT-3′ are shown on the right side of the autoradiograms. The lanes of each gel are described as follows lane 1, intact DNA (control); lane 2, A reaction; lanes 3-7, 100 pM, 1 nM, 10 nM, and 100 nM, and 1 μM polyamide, respectively. All lanes contain 15 kcpm of either 3′- or 5′-radiolabeled DNA, 20 mM HEPES buffer (pH 7.3), 200 mM NaCl, 50 μg/ml glycogen, 5 mM DTT, 1 μM Fe(II), pH 7.0, and were run at 22° C.
FIGS. 7A-7C illustrate the synthesis of cyclo-(γ-Im-Py-Py-Py(R)^EDTA•Fe(II)γPy-Py-Py-Py) (4-E•Fe(II)) from cyclo-(γ-Im-Py-Py-Py-(R)^H2^Nγ-Py-Py-Py-Py) (4) by: (i) EDTA dianhydride (DMSO/NMP, DIEA, 55° C., 15 min); (ii) 0.1 M NaOH (55° C., 10 min). […] Bar heights are proportional to the relative cleavage intensities at each base pair. Shaded and non-shaded circles denote Im and Py carboxamides, respectively. The boxed Fe denotes the EDTA•Fe(II) cleavage moiety. […]

[4] = test system: 5′-AGTATT-3′ site on 229 bp restriction fragment of pJT8; test: Quantitative DNase I footprint titration, 5′-AGTATT-3′ site; assay type: binding; conditions: for equilibrium association constant Ka at 5′-AGTATT-3′: 10 mM Tris•HCl, 10 mM KCl, 10 mM MgCl2, 5 mM CaCl2, pH 7.0, 22° C., match site for (4), single base pair mis-match for (3)
Experimental: as §1
as §2, with “130:132 (1986), Brenowitz, et al., Proc. Natl. Acad. Sci. U.S.A., vol 83:8462 (1986), and Senear, et al., Biochemistry, vol. 25:7344 (1986).” left out

[5] = test system: 229 base pair restriction fragment of pJT8 (5′-AGTACT-3′ and 5′-AGTATT-3′ sites); test: MPE•Fe(II) footprinting; assay type: binding; conditions: 25 mM HEPES pH 7.3, 200 mM NaCl, 22°; for MPE•Fe(II) footprinting: binding at match site: 10 nM polyamide
Experimental: FIG. 5 illustrates the 229 bp restriction fragment with the relative positions of the match and single base pair mis-match sequences indicated for two 8-ring cyclic polyamides, cyclo-(γ-Im-Py-Py-Py-(R)^H2^Nγ-Im-Py-Py-Py) (3) and cyclo-(γ-Im-Py-Py-Py-(R)^H2^Nγ-Py-Py-Py-Py) (4). MPE•Fe(II) protection patterns of 10 nM cyclo-(γ-Im-Py-Py-Py-(R)^H2^Nγ-Im-Py-Py-Py) (3) and 10 nM cyclo-(γ-Im-Py-Py-Py-(R)^H2^Nγ-Py-Py-Py-Py) (4) are shown by the bar graphs. Bar heights are proportional to the relative protection from cleavage at each base pair. Binding sites determined by MPE•Fe(II) footprinting and quantitated by DNase I footprint titrations are boxed. Autoradiograms of MPE•Fe(II) footprinting experiments using cyclo-(γ-Im-Py-Py-Py-(R)^H^2^Nγ-Im-Py-Py-Py) (3) (left) and cyclo-(γ-Im-Py-Py-Py-(R)^H^2^Nγ-Py-Py-Py-Py) (4) (right) on the 3′ ^32P-labeled 229 bp restriction fragment of pJT8. 5′-AGTATT-3′ and 5′-AGTACT-3′ sites are shown adjacent to the auto radiograms. Lane 1, intact control; lane 2, MPE•Fe(II) reaction; lane 3, A reaction standard; lanes 4-8: 100 pM; 1 nM; 10 nM; 100 nM; and […] polyamide, respectively. All lanes contain 15 kcpm of either 3′ or 5′-radiolabeled DNA, 25 mM HEPES buffer (pH 7.3), 200 mM NaCl, […] glycogen, 5 mM DTT, 0.5 mM MPE•Fe(II), and were run at 22° C.
as §2, with “25:7344 (1986). […]” for “25:7344 (1986).”

Substance: Im-Py-Py-γ-Py-Py-Py-Dp
specificity for match sequence versus single base pair mismatch sites [2]: 20 fold

Substance: cyclo-(Im-Py-Py-γ-Py-Py-Py-γ)
concentration at which the five base pair target 5′-TGTTA-3′ is bound [2]: subnanomolar
higher affinity relative to hairpin analog Im-Py-Py-γ-Py-Py-Py-Dp [2]: 40 fold
specificity for match sequence versus single base pair mismatch sites [2]: 4-17 fold

Substance: cyclo-(γ-Im-Py-Py-Py-(R)^EDTA•Fe(II)γ-Py-Py-Py-Py-) [4-E•Fe(II)]
affinity cleavage pattern at 5′-AGTACT-3′ single base pair mis-match site [3]: minor cleavage loci located 3′ and 5′ adjacent to the single base pair mis-match 5′-AGTACT-3′ site
affinity cleavage pattern at 5′-AGTATT-3′ match site [3]: major cleavage locus proximal to the 3′ side of the 5′-AGTATT-3′ match sequence

Substance: cyclo-(γ-Im-Py-Py-Py-(R)^H2Nγ-Im-Py-Py-Py) [polyamide 3]
equilibrium association constant Ka at 5′-AGTACT-3′ [1]: 7.6e+10 M⁻¹
affinity enhancement relative to hairpin polyamide (2) ([1]; 5′-AGTACT-3′ match site): 8 fold
increase in dsDNA binding affinity relative to unlinked, dimeric polyamide (1) ([1]; 5′-AGTACT-3′ match site): 3,600 fold
specificity for match 5′-AGTACT-3′ over single base pair mis-match 5′-AGTATT-3′ ([1]; ratio of Ka values): 55 fold
equilibrium association constant Ka at 5′-AGTATT-3′ [4]: 1.3e+09 M⁻¹
MPE•Fe(II) footprinting: binding at match site [5]: bound to its designated 6 bp match sites
MPE•Fe(II) footprinting: binding at single base pair mismatch site [5]: detected only at much higher polyamide concentrations

Continued, in another order:

lower affinity than previously described hairpin Im-Py-Py-Py-γ-Im-Py-Py-Py-β-Dp [1]: 4 fold
lower sequence specificity than previously described hairpin Im-Py-Py-Py-γ-Im-Py-Py-Py-β-Dp [1]: 5
increase in dsDNA binding affinity relative to unlinked, dimeric polyamide (1) ([1]; 5′-AGTACT-3′ match site): 428 fold
Substance: Im-Py-Py-Py-(R)^H2Nγ-Im-Py-Py-Py-OH [polyamide 2, reference compound]

equilibrium association constant Ka at 5′-AGTACT-3′ [1]: 4.2e+08 M⁻¹
equilibrium association constant Ka at 5′-AGTATT-3′ [4]: 3.1e+09 M⁻¹
preference for match 5′-AGTATT-3′ versus single base pair mis-match 5′-AGTACT-3′ ([4]; ratio of Ka values): 7 fold
MPE•Fe(II) footprinting: binding at match site [5]: bound to its designated 6 bp match sites
Substance: cyclo-(γ-Im-Py-Py-Py-(R)^H2Nγ-Py-Py-Py-Py) [polyamide 4]
MPE•Fe(II) footprinting: binding at single base pair mismatch site [5]: protected its targeted match site 5′-AGTATT-3′ and the single base pair mismatch site 5′-AGTACT-3′
